Reference: publication PMC7076013 (Scientific Reports, 2020)

Tests used:
A375 cells [1] = experiment: Caspase activation (ApoStat), A375; type: cell-based, human; settings: A375, 48 h
Protocol: The results were ex pressed as a p er centage of a v alue obtained for the untr eated control cells that was arbitrarily set to be 100%. A non- linear regression analysis of obtained results was done b y using Gr aphPad Prism software to calculat e IC50 values.
3.3. AnnexinV-FITC/P I and caspase det ection.
A375 cells were treated with 5 for 48 h, trypsinized, and stained with AnnexinV-FITC (Ann) or propidium iodide (PI), or apostat as proposed by the manufacturer. C ells were anal yz ed b y C yFlow® Space Part ec u sing the PartecFloM ax ® software.
3.4. Cell staining with CFSE.
To quantify cell division rate, cells were incubated for 10 min at 37 °C in the presence of […]
subsequentl y quantified using flow c ytomet r y.
Cell motilit y and proliferation was anal yz ed using wound healing assa y. A375 and 518A2 cells were cultivated in 6-well plates until 80% of confluence in monola yers w as reached. Th e scratch was made using a steri le pipette tip which was drawn across the center of the wells. The scratch ed cell la yers w ere wash ed twice with fres h PBS to remove loose or damaged cells. Cells […]
4% paraformald eh yde (PFA) for 10 min at room temperature . The wounds were digitally photographed using a Ni kon inverted microscope TS2 with 5 MPIX cam era.
3.6. Measurement of intracellular nitric oxide

518A2 cells [2] = experiment: Intracellular ROS/RNS (DHR), 518A2; type: cell-based, human; settings: 518A2, 48 h; untreated 70.7 ± 5.5
Protocol: (§1) Given that analogue 5 is designed for NO release, the intracellular release of nitric oxide and production of reactive oxygen species (ROS)/reactive nitrogen species (RNS) was measured by means of redox-sensitive dyes — 4-amino-5-methylamino-2′,7′-difluorofluorescein diacetate (DAF) and dihydrorhodamine-123 (DHR) — after exposure for 48 h (Fig. 11). […] It is well documented that highly intensified production of ROS/RNS is connected with extreme cell damage and consequent cell death, whereas moderate ROS production is involved in the regulation of intracellular processes often involved in cell cycle arrest, proliferation, and differentiation[63],[64]. Apart from the moderate intracellular NO release, it was important to evaluate whether 5 released NO extracellularly. The production of NO from a nitrate group is a three-electron reduction process that can happen by a number of possible 2e^– and 1e^– pathways, commonly involving the initial liberation of a nitrite. A common method of detecting the release of NO in the extracellular compartment is the detection of nitrite ions by the Griess reaction, which quantifies the nitrite resulting from the oxidation of NO[66],[67]. […] Introduction of a nitrate moiety was also found to be beneficial in the case of rofecoxib. […]

[3] = test system: four melanoma and four colon cancer cell lines; experiment: MTT and CV viability, whole panel of cell lines; type: cell-based; settings: 48 h
Protocol: Both melanoma and colon cancer are tumor types tightly connected with inflammation, while the expression of COX-2 in the selected cell lines was highly variable. Since a lot of discrepancies were found in the literature concerning the expression of this enzyme[5],[48]–[53], both COX-1 and COX-2 expression was analyzed by Western blot. […] The cells were treated with a wide range of doses of 4a–c, 5, and 6 for 48 h and cell viability was determined by MTT (3-(4,5-dimethylthiazol-2-yl)-2,5-diphenyltetrazolium bromide) and CV (crystal violet) assays. The obtained IC50 values were similar for both assays (Table 1).
Reagents were obtained from Sigma (St. Louis, MO) unless indicated otherwise. […]
S ystems, Minneapolis, MN USA). […] After being detached b y tr ypsinization, cells were seeded in defined number as follows: 2.5 × 10^3 cells/well in 96-well plates for viability assessment and 2 × 10^4 cells/well in 24-well plates for flow cytometry. […]
Before treatment, non- adherent cells were removed. Compounds 4a- c, 5 and 6 were dissolved in DMSO and stored at −20 °C for a m onth. […]
The number of viable cel ls in culture was estimated by the MTT (3-(4,5- dimethylthiazol- 2-yl ) - 2,5- diphenyltetrazolium bromide) and CV (crystal violet) tests. Cells were incubated in the presence of compounds 4a- c, 5 and 6 for 48 h, then the viability was measured as described.4 […]

518A2 cells [4] = experiment: Fluorescence microscopy of DAPI-stained cells, 518A2; type: cell-based, human; settings: 518A2, 72 h
Protocol: It was observed that the wound in the control of the A375 cells decreased from 172 ± 69 μm to 127 ± 13 μm, compared to the treated cells where it stayed at 177 ± 32 μm. […] (Fig. 10A).To confirm this, the cell proliferation rate was determined after 72 h of incubation in the presence of 5 of the carboxyfluorescein succinimidyl ester (CFSE)-stained cells. […] These findings were further confirmed by fluorescence microscopy of 4′,6-diamidino-2-phenylindole (DAPI)-stained cells (Fig. 10C), for which predominantly large nuclei with scarce nucleoli characteristic for interphase were observed on treatment of A375 cells with 5[60]. In addition, sporadic oblong nuclei with condensed chromatin, typical for apoptosis, were also observed (25 ± 9%). On the other hand in the DAPI-stained 518A2 cells typical apoptotic shrunken nuclei and apoptotic bodies were dominant (60 ± 2%)[61]. The different modes of action on the two melanoma cell lines indicate that cell specific characteristics define the outcome of the treatment with 5. […] Recent data on the compensatory proliferation in response to induced apoptotic cell death in the tumor tissue even favor a nonaggressive approach in the therapy of advanced malignancy.

A375 cells [5] = experiment: Intracellular NO (DAF), A375; type: cell-based, human; settings: A375, 48 h; untreated 40 ± 7
Protocol: as §1

**Q.** Which “total caspase activity (ApoStat)” value (A375 cells [1]) does the source give for “4-[4-(methylnitrooxy)phenyl]-3-(1,2-dicarba-closo-dodecaboranyl)furan-2(5 H)-one [Compound 5]” here?
**A.** The value was “only a slight enhancement of total caspase activity”.

**Q.** What about the “ROS/RNS production, mean fluorescence (DHR)” value (518A2 cells [2]) of the same substance?
**A.** Its value is 65.6 ± 0.9.

**Q.** And the “effect on cell viability across tested cell lines” value [3]?
**A.** The value was “highest decrease in cell viability in all of the melanoma cell lines”.

**Q.** What about the “apoptotic shrunken nuclei and apoptotic bodies (DAPI)” value (518A2 cells [4]) of the same substance?
**A.** Its value is 60 ± 2%.

**Q.** What about the “intracellular NO, mean fluorescence (DAF)” value (A375 cells [5]) of the same substance?
**A.** Its value is 60.5 ± 9.1.
